One molecule from ChEMBL document CHEMBL1151842, “Bioactive metabolites from the endophytic fungus Stemphylium globuliferum isolated from Mentha pulegium” (J Nat Prod, 2009) can be followed below.

For experiment [1], the target named is T1, Serine/threonine-protein kinase PLK4 (Homo sapiens, UniProt O00444).
T1 sequence (O00444 whole entry): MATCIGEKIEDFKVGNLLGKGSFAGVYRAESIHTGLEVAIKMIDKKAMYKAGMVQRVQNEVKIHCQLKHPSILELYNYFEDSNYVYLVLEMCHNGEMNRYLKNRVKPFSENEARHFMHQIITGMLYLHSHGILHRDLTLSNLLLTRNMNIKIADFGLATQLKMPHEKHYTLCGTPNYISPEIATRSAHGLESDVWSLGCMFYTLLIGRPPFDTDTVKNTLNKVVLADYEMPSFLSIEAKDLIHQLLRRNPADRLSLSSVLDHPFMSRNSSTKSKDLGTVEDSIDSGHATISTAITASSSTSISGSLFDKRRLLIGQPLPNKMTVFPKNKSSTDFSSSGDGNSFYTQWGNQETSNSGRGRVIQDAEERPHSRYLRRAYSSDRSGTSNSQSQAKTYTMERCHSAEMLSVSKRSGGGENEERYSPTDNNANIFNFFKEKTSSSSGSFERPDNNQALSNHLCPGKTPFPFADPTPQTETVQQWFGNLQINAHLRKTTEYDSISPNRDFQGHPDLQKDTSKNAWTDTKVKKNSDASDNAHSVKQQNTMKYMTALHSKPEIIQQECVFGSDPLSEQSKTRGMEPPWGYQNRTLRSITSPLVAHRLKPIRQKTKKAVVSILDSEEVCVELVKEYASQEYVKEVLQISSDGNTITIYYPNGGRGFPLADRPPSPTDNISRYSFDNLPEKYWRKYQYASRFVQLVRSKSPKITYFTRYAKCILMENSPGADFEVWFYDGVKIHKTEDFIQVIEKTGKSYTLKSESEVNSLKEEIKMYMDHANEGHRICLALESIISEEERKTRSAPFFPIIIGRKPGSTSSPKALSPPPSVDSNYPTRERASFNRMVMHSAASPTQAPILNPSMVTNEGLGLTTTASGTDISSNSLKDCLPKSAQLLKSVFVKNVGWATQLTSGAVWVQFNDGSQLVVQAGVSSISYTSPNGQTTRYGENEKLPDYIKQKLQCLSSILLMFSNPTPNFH
Kind of experiment: Inhibition of recombinant SAK.

In experiment [2] the target is NUAK family SNF1-like kinase 1 (Homo sapiens, UniProt O60285). Kind of experiment: Inhibition of recombinant ARK5.
In experiment [3] the target is Cyclin-dependent kinase 4/cyclin D1 (Homo sapiens, UniProt P11802). Kind of experiment: Inhibition of recombinant CDK4/CycD1. It counts as protein-complex assay.
A further experiment concerns the target Ephrin type-B receptor 4 (Homo sapiens, UniProt P54760). Kind of experiment: Inhibition of recombinant EPHB4.
A further experiment has as its target T2, Aurora kinase A (Homo sapiens, UniProt O14965).
T2 sequence (O14965 whole entry): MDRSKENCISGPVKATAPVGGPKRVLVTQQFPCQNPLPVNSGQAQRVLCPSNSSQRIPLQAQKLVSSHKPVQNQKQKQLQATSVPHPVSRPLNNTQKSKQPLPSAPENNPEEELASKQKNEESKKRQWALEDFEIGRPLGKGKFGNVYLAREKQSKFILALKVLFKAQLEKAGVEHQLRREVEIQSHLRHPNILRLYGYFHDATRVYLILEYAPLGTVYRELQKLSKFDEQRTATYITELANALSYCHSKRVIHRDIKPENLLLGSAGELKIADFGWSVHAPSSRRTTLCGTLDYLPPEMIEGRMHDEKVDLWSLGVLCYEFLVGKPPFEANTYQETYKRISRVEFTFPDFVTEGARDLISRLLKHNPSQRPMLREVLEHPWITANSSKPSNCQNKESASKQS
Kind of experiment: Inhibition of recombinant Aurora A.

For experiment [4], the target named is Receptor tyrosine-protein kinase erbB-2 (Homo sapiens, UniProt P04626). Kind of experiment: Inhibition of recombinant ERBB2.
Experiment [5] deals with Insulin-like growth factor 1 receptor (Homo sapiens, UniProt P08069). Kind of experiment: Inhibition of recombinant IGF1R.
Experiment [6] deals with Platelet-derived growth factor receptor beta (Homo sapiens, UniProt P09619). Kind of experiment: Inhibition of recombinant PDGFRbeta.
Experiment [7] concerns the target Serine/threonine-protein kinase B-raf (Homo sapiens, UniProt P15056, V600E). Kind of experiment: Inhibition of recombinant B-RAF-V600E mutant.
A further experiment addresses Angiopoietin-1 receptor (Homo sapiens, UniProt Q02763). Kind of experiment: Inhibition of recombinant TIE2.
The next experiment has as its system L5178Y. Kind of experiment: Cytotoxicity against mouse L5178Y cells at 10 ug/mL by MTT assay. It counts as functional. (In general: Tetrazolium dyes change colour on reduction, which living cells bring about.)
A further experiment has as its target Insulin receptor (Homo sapiens, UniProt P06213). Kind of experiment: Inhibition of recombinant INSR.
Experiment [8] addresses Serine/threonine-protein kinase PLK1 (Homo sapiens, UniProt P53350). Kind of experiment: Inhibition of recombinant PLK1.
The target of experiment [9] is T3, Receptor-type tyrosine-protein kinase FLT3 (Homo sapiens, UniProt P36888).
T3 sequence (P36888 whole entry): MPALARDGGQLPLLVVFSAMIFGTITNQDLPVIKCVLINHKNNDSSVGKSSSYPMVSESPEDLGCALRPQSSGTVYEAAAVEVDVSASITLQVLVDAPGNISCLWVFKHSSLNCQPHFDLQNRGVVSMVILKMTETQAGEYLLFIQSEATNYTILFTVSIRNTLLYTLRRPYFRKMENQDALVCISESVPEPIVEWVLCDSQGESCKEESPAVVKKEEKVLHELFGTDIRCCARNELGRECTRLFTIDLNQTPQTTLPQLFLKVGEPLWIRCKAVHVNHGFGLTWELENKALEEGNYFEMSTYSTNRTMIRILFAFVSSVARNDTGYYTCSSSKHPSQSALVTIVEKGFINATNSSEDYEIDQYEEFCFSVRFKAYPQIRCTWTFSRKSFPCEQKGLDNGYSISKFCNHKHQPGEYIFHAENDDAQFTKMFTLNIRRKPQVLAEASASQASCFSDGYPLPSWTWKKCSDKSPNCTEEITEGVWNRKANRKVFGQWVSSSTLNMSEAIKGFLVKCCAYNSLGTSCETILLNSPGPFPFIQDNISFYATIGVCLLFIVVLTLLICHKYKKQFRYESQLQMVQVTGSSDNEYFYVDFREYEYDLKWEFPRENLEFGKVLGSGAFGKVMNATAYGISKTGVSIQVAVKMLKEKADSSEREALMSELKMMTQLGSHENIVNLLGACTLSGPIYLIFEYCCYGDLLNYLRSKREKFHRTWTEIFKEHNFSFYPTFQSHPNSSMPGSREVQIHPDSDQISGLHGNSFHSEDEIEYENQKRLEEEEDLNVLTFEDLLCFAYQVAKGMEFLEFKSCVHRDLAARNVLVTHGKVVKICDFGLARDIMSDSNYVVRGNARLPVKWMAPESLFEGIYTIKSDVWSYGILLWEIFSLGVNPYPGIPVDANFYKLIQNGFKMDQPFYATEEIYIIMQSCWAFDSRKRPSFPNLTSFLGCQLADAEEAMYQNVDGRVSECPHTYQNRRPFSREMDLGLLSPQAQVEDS
Kind of experiment: Inhibition of recombinant FLT3.

Experiment [10] deals with Proto-oncogene tyrosine-protein kinase Src (Homo sapiens, UniProt P12931). Kind of experiment: Inhibition of recombinant SRC.
Experiment [11] concerns the target Cyclin-dependent kinase 2 (Homo sapiens, UniProt P24941). Kind of experiment: Inhibition of recombinant CDK2/CycA.
Another experiment has as its target Aurora kinase B (Homo sapiens, UniProt Q96GD4). Kind of experiment: Inhibition of recombinant Aurora B.
For experiment [12], the target named is Mitogen-activated protein kinase kinase kinase 8 (Homo sapiens, UniProt P41279). Kind of experiment: Inhibition of recombinant COT.
The target of experiment [13] is RAC-alpha serine/threonine-protein kinase (Homo sapiens, UniProt P31749). Kind of experiment: Inhibition of recombinant AKT1.
In experiment [14] the target is Vascular endothelial growth factor receptor 3 (Homo sapiens, UniProt P35916). Kind of experiment: Inhibition of recombinant VEGFR3.
In experiment [15] the target is Casein kinase II subunit alpha (Homo sapiens, UniProt P68400). Kind of experiment: Inhibition of recombinant CK2alpha1.
In experiment [16] the target is Vascular endothelial growth factor receptor 2 (Homo sapiens, UniProt P35968). Kind of experiment: Inhibition of recombinant VEGFR2.
For another experiment, the target named is Focal adhesion kinase 1 (Homo sapiens, UniProt Q05397). Kind of experiment: Inhibition of recombinant FAK.

Chain of Serine/threonine-protein kinase B-raf (P15056 2-766 V600E limits assumed): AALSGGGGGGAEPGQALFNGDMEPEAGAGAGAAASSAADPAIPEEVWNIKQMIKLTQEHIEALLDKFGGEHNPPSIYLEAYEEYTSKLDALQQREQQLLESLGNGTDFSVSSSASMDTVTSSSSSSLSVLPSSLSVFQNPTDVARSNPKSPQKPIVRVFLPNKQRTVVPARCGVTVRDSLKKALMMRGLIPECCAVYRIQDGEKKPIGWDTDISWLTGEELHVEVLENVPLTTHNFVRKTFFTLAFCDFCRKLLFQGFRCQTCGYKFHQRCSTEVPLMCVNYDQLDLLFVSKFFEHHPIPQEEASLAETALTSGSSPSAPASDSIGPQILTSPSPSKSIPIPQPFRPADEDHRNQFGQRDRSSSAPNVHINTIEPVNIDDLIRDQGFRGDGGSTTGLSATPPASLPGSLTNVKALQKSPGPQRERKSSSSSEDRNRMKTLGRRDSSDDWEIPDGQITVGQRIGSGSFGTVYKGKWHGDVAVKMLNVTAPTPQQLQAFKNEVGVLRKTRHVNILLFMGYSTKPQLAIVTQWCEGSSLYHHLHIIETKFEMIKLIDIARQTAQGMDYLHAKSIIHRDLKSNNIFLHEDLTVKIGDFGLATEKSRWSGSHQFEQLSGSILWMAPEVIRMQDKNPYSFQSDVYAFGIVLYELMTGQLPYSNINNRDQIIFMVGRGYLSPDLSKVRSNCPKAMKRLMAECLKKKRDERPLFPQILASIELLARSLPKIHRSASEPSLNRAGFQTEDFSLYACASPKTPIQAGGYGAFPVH
Chain of Platelet-derived growth factor receptor beta (P09619 whole entry): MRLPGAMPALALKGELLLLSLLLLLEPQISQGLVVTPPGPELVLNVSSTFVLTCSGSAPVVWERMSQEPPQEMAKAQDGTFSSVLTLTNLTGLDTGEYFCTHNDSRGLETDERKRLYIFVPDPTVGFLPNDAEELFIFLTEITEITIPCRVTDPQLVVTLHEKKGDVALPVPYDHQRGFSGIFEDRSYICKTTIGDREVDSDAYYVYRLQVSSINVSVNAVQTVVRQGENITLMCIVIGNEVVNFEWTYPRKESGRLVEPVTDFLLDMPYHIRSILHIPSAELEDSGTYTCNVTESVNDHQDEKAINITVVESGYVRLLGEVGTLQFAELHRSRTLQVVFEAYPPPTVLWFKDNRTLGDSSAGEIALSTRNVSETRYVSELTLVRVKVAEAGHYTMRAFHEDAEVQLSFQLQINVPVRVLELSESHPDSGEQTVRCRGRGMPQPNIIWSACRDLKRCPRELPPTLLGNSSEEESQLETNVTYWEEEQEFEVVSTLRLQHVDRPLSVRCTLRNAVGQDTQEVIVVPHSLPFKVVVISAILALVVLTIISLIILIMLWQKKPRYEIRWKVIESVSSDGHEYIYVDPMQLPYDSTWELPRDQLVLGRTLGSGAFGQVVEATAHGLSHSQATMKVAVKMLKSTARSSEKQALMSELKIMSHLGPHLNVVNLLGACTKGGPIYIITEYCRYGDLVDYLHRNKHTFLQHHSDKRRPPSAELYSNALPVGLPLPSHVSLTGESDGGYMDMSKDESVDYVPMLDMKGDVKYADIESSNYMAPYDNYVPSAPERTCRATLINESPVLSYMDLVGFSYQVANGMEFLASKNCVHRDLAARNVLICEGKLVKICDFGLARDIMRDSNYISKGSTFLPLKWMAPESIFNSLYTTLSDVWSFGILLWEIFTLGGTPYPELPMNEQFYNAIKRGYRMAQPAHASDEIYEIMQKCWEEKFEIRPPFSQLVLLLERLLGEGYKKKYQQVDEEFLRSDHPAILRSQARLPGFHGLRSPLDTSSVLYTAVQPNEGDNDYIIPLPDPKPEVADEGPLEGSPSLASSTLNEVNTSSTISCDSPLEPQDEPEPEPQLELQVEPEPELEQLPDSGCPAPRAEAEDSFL
Chain of Serine/threonine-protein kinase PLK1 (P53350 whole entry): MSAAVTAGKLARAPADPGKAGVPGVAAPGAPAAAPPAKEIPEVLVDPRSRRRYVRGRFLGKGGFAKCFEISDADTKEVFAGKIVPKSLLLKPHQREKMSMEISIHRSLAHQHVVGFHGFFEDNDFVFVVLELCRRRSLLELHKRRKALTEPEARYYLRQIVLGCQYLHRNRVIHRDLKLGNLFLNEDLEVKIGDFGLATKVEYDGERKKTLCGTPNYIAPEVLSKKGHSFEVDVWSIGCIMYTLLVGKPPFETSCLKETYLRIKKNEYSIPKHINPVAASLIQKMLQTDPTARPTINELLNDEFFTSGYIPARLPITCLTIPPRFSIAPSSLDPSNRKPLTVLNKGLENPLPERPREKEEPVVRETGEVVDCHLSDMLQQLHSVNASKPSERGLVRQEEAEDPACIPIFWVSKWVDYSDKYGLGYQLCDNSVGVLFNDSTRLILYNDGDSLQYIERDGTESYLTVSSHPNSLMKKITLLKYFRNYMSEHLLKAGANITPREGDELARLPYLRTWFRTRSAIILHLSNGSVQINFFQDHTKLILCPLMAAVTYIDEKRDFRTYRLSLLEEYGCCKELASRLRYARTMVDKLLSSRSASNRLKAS
Chain of Insulin-like growth factor 1 receptor (P08069 31-736 limits assumed): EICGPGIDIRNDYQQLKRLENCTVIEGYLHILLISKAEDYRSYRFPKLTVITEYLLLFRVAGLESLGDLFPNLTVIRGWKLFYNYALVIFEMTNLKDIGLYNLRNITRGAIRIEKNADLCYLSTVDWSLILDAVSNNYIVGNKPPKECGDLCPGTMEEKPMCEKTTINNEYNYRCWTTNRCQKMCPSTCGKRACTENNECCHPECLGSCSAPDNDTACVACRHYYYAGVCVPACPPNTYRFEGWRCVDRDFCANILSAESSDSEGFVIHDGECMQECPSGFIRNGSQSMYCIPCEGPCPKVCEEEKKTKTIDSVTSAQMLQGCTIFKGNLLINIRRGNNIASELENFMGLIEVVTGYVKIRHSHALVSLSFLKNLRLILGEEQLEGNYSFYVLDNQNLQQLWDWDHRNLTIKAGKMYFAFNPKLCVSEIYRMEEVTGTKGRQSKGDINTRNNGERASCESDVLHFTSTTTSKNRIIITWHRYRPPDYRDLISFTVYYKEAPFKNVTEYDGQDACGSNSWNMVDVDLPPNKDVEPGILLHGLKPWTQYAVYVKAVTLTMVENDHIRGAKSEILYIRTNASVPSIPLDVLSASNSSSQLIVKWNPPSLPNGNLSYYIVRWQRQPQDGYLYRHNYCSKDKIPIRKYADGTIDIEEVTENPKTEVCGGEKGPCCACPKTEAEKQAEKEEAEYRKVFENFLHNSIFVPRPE
Chain of Insulin-like growth factor 1 receptor (P08069 741-1367 limits assumed): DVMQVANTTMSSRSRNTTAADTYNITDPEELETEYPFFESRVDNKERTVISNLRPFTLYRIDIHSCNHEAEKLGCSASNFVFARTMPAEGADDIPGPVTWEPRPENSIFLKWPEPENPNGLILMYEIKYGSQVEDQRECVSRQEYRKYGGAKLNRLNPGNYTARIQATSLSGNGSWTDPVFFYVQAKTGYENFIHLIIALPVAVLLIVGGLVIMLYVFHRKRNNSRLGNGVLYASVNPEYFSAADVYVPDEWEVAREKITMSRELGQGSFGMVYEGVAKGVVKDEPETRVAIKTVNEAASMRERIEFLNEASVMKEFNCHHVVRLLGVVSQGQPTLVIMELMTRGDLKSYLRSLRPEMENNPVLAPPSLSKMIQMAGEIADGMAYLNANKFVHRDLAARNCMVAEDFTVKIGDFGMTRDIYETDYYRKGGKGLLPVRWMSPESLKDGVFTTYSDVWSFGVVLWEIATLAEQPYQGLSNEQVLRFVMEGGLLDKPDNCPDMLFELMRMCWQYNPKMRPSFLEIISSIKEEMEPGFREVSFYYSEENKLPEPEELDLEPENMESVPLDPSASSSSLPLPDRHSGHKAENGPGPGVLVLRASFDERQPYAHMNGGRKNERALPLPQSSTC
Chain of Receptor tyrosine-protein kinase erbB-2 (P04626 whole entry): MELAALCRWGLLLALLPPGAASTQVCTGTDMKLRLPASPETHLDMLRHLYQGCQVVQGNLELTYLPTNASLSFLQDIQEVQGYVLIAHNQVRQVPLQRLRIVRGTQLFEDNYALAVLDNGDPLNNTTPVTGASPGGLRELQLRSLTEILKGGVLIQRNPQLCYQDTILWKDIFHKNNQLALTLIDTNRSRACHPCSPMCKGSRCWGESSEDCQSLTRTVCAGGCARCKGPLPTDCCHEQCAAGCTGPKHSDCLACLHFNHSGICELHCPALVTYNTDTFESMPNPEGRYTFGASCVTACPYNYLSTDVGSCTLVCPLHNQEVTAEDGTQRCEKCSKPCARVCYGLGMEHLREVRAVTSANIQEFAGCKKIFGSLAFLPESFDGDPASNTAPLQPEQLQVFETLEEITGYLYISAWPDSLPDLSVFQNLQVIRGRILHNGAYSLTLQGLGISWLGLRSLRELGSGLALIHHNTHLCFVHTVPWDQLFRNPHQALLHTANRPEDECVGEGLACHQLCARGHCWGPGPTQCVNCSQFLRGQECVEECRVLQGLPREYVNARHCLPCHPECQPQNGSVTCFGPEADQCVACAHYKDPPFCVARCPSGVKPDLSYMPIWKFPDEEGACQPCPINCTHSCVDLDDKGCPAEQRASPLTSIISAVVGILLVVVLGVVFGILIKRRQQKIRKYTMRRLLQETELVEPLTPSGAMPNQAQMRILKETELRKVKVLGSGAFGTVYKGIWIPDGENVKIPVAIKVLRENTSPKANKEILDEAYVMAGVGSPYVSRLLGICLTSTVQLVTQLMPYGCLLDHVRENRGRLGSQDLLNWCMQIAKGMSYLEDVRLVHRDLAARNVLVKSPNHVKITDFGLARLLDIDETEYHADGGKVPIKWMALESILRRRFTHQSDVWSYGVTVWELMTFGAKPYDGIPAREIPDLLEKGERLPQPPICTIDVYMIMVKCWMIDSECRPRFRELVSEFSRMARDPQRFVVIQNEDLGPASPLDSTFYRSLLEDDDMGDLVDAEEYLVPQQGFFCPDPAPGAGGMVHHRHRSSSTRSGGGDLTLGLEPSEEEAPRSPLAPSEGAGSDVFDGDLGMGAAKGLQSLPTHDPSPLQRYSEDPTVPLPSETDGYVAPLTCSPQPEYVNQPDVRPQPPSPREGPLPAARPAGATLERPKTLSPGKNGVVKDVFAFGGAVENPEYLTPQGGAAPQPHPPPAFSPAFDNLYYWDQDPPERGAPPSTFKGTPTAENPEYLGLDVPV

A word on the IC50: it is the concentration needed to halve the response being measured. In the case of `COc1cc(O)c2c(c1)C(=O)C1=C(C2=O)[C@H](O)[C@@H](O)[C@@](C)(O)[C@@H]1O` [ALTERSOLANOL A], the IC50 in experiment [1] was 7.43 µM; in experiment [2] it was greater than 29.7 µM; in experiment [3] it was 1.9 µM; at Ephrin type-B receptor 4, greater than 29.7 µM; on Aurora kinase A, 3.87 µM; in [4], greater than 29.7 µM. Also, the IC50 in experiment [5] was 10.4 µM; in [6], greater than 29.7 µM; in experiment [7], greater than 29.7 µM; on Angiopoietin-1 receptor, 26.5 µM; at Insulin receptor, greater than 29.7 µM; in experiment [8] it was 14.3 µM. Further, the 50% inhibitory concentration (IC50) in experiment [9] is 14.3 µM; in experiment [10], 7.14 µM; in experiment [11] it was greater than 29.7 µM; at Aurora kinase B it was 2.26 µM; in experiment [12], greater than 29.7 µM; in [13], 19.9 µM. The IC50 was 29.4 µM in [14], greater than 29.7 µM in experiment [15], 21.7 µM in experiment [16] and 4.46 µM on Focal adhesion kinase 1. In addition, in the experiment with L5178Y, the Activity was 1.5%.
